Measured values reported in ChEMBL document CHEMBL1201862, “PubChem BioAssay data set” (2004).
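Dose response: 5 concentrations. Exposure: 48 h. Format: 96-well plates. Endpoint: linear interpolation; highest concentration if not reached. GI50 marks 50% less growth.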 Activity calls are given as the source filed them. No stated cut-off is given here; in the data, active = GI50 up to about 1.1 µM and inactive = higher.

Experiments:
Assay in all cases: NCI anticancer screen, dose series, 48 h
ACHN = tested on: ACHN
CAKI-1 = tested on: CAKI-1
CCRF-CEM = tested on: CCRF-CEM
EKVX = tested on: EKVX
HCC 2998 = tested on: HCC 2998
HCT-15 = tested on: HCT-15
HL-60 = tested on: HL-60
HT-29 = tested on: HT-29
MOLT-4 = tested on: MOLT-4
Malme-3M = tested on: Malme-3M
OVCAR-3 = tested on: OVCAR-3
OVCAR-4 = tested on: OVCAR-4
OVCAR-8 = tested on: OVCAR-8
SF-268 = tested on: SF-268
SF-295 = tested on: SF-295
SK-MEL-28 = tested on: SK-MEL-28
SK-MEL-5 = tested on: SK-MEL-5
SR = tested on: SR
TK-10 = tested on: TK-10
UACC-257 = tested on: UACC-257

Row | SMILES | GI50 (ACHN) | GI50 (CAKI-1) | GI50 (CCRF-CEM) | GI50 (EKVX) | GI50 (HCC 2998) | GI50 (HCT-15) [µM] | GI50 (HL-60) | GI50 (HT-29) | GI50 (MOLT-4) | GI50 (Malme-3M) | GI50 (OVCAR-3) | GI50 (OVCAR-4) | GI50 (OVCAR-8) | GI50 (SF-268) | GI50 (SF-295) | GI50 (SK-MEL-28) | GI50 (SK-MEL-5) | GI50 (SR) | GI50 (TK-10) | GI50 (UACC-257)
1 | C/C=C(/C)C(=O)O[C@@H]1c2c(C)coc2C[C@H]2CC[C@H](O)[C@H](C)[C@]21C | 36.9 µM (inactive) | > 100 µM (inactive) | 36.7 µM (inactive) | > 100 µM (inactive) | > 100 µM (inactive) | 78.5 | 34.5 µM (inactive) | 47.1 µM (inactive) | 30.6 µM (inactive) | 26.9 µM (inactive) | 27 µM (inactive) | 39.4 µM (inactive) | 42.5 µM (inactive) | 70.8 µM (inactive) | > 100 µM (inactive) | 44.8 µM (inactive) | 35.6 µM (inactive) | 49.9 µM (inactive) | 64.6 µM (inactive) | 34.2 µM (inactive)
2 | c1ccc(COc2ccc(CC3SCCCS3)cc2)cc1 | > 100 µM (inactive) | 62.7 µM (inactive) | 43.6 µM (inactive) | > 100 µM (inactive) | > 100 µM (inactive) | 67.3 | 23.2 µM (inactive) | > 100 µM (inactive) | 31.8 µM (inactive) | > 100 µM (inactive) | > 100 µM (inactive) | > 100 µM (inactive) | > 100 µM (inactive) | > 100 µM (inactive) | > 100 µM (inactive) | > 100 µM (inactive) | 35.2 µM (inactive) | 34.4 µM (inactive) | > 100 µM (inactive) | 21.8 µM (inactive)
3 | NC(CO)c1ccccc1 (stereo not given) | > 100 µM (inactive) | > 100 µM (inactive) | 8.71 µM (inactive) | > 100 µM (inactive) | > 100 µM (inactive) | > 100 | > 100 µM (inactive) | > 100 µM (inactive) | > 100 µM (inactive) | > 100 µM (inactive) | > 100 µM (inactive) | > 100 µM (inactive) | > 100 µM (inactive) | > 100 µM (inactive) | > 100 µM (inactive) | > 100 µM (inactive) | > 100 µM (inactive) | > 100 µM (inactive) | > 100 µM (inactive) | > 100 µM (inactive)
